# Assay results as given in patent publication US5578608A, “Symmetrical diaryl and diheteroanyl cis epoxy alkanes antiviral compounds” (Eli Lilly and Company, priority 1995, dated 1996).
# Target: T1, HIV-1 protease (Human immunodeficiency virus type 1 group M subtype B, UniProt P04585)
# T1 construct: made in house; host or cells: E. coli K12 L507/pHP10D (NRRL B-18560)
# Assay: biochemical
# Details: 16 h incubation at room temperature, MES-ALB buffer pH 5.5; normalized to a positive control; read-out: Fluorescence Assay IC50 (converted)
# Description: A culture of E. coli K12 L507/pHP10D was grown to mid-log phase at 32° C. in LB media containing 12.5 μg/ml tetracycline. The cultivation temperature was quickly elevated to 40° C. to induce gene expression, and the cells were allowed to grow for 2.5 hours at this temperature before the culture was quickly chilled on ice. The cells were centrifuged and the cell pellet was resuspended in 20 mL 50 mmol MES buffer (pH 6.0) containing 1 mmol EDTA, 1 mmol DTT, 1 mmol PMSF and 10% glycerol ("Buffer A"). Cells were lysed by sonication using a Fischer Model 300 Dismembrator and a microtip probe. Following centrifugation at 27,000 x g, the supernatant was diluted to a total volume of 60 mL with Buffer A and loaded onto a 2.0×19 cm QAE-Sepharose column (1 mL/min, 4° C.), that had been equilibrated in Buffer A. The column was washed isocratically for 180 min and then eluted with a gradient eluent of 0-1.0M NaCl in Buffer A over 120 min. Enzymatic activity was measured by HPLC using the synthetic peptide SQNYPIV as described in Margolin et al., Biochem. Biophys. Res. Commun., […], 554-560 (1990); the production of the p1 peptide (SQNY) was measured.
# N^a -Biotin-[…]N^e -FITC)-OH SEQ ID NO: 1
# The following buffers and solutions are used in the Fluorescence HIV-1 Protease Inhibitor Assay:
# To each well of a round bottom, 96-well plate is added 20 μL of the Enzyme Solution followed by 10 μL of the compound to be evaluated in a 20% aqueous dimethylsulfoxide solution. Purified HIV-1 protease was obtained as described above. The resulting solution is incubated for one hour at room temperature and then 20 μL of a solution containing the substrate, N^a -Biotin-[…]N^e-FITC)-OH, in MES-ALB buffer ([…]) is added to each well. The solutions are then incubated for 16 hours at room temperature and then each well is diluted with 150 μL of MES-ALB buffer.
# To each well of a second round bottom, 96-well Pandex plate is added 25 uL of the Avidin Coated Beads Solution. Then, to each well is added 25 μL of the diluted incubation solutions, prepared above. The solutions are mixed thoroughly and the plates are loaded into a Pandex® machine, washed, evacuated and read. Sample detection was performed by excitation at 485 nm, reading the resulting epifluorescence at 535 nm.
row,Structure (SMILES),IC50
1,"CC[C@H](C)[C@H](NC(=O)N(C)Cc1ccccn1)C(=O)N[C@@H](Cc1ccccc1)[C@@H]1O[C@@H]1[C@H](Cc1ccccc1)NC(=O)[C@@H](NC(=O)N(C)Cc1ccccn1)[C@@H](C)CC [Example 24, 1,6-Diphenyl-2(S),5(S)-di[N-[2(S)-N[[N(methyl)-N(pyrid-2-ylmethyl)amino]carbonyl]amino-3(S)-methylpentanoyl]amino]-3,4-cis-epoxyhexane]",163 nM

# Same assay, conditions: at 1000 ng/ml; read-out: Fluorescence Assay, given as ICxx (1000): xx is the percent inhibition
row,Structure (SMILES),inhibition at 1 µg/mL
1,"CC(C)[C@H](NC(=O)N(C)CCc1ccccn1)C(=O)N[C@@H](Cc1ccccc1)[C@@H]1O[C@@H]1[C@H](Cc1ccccc1)NC(=O)[C@@H](NC(=O)N(C)CCc1ccccn1)C(C)C [Example 16, 1,6-Diphenyl-2(S),5(S)-di[N-[2(S)-N-[[N(methyl)-N(pyrid-2-ylethyl)amino]carbonyl]amino-3-methylbutanoyl]amino]-3,4-cis-epoxyhexane]",32%
2,"CCCC[C@H](NC(=O)OCc1ccccn1)C(=O)N[C@@H](Cc1ccccc1)[C@@H]1O[C@@H]1[C@H](Cc1ccccc1)NC(=O)[C@H](CCCC)NC(=O)OCc1ccccn1 [Example 25, 1,6-Diphenyl-2(S),5(S)-di[N-[2(S)-N(pyrid-2-ylmethoxycarbonyl)amino]hexanoyl]amino-3,4-cis-epoxyhexane]",40%

# Same assay, conditions: read-out: Fluorescence Assay IC50 (converted)
row,Structure (SMILES),IC50
1,CC(C)(C)[C@H](NC(=O)OCc1ccc2ccccc2n1)C(=O)N[C@@H](Cc1ccccc1)[C@@H]1O[C@@H]1[C@H](Cc1ccccc1)NC(=O)[C@@H](NC(=O)OCc1ccc2ccccc2n1)C(C)(C)C [Example 30],382 nM
2,"CCC[C@H](NC(=O)N(C)Cc1ccc2ccccc2n1)C(=O)N[C@@H](Cc1ccccc1)[C@@H]1O[C@@H]1[C@H](Cc1ccccc1)NC(=O)[C@H](CCC)NC(=O)N(C)Cc1ccc2ccccc2n1 [Example 21, 1,6-Diphenyl-2(S),5(S)-di[N-[2(S)-N[[N(methyl)-N(quinolin-2-ylmethyl)amino]carbonyl]aminopentanoyl]amino]-3,4-cis epoxyhexane]",66.1 nM
3,"CC(C)C[C@H](NC(=O)OCc1ccccn1)C(=O)N[C@@H](Cc1ccccc1)[C@@H]1O[C@@H]1[C@H](Cc1ccccc1)NC(=O)[C@H](CC(C)C)NC(=O)OCc1ccccn1 [Example 13, 1,6-Diphenyl-2(S),5(S)-di[N-[2(S)-N(pyrid-2-ylmethoxycarbonyl)amino-4-methylpentanoyl]amino]-3,4-cis-epoxyhexane]",2880 nM
4,"C[C@H](NC(=O)OCc1ccccc1)C(=O)N[C@@H](Cc1ccccc1)[C@@H]1O[C@@H]1[C@H](Cc1ccccc1)NC(=O)[C@H](C)NC(=O)OCc1ccccc1 [Example 20, 1,6-Diphenyl-2(S),5(S)-di[N-[2(S)-N(benzyloxycarbonyl)amino]propanoyl]amino-3,4-cis-epoxyhexane]",803 nM
5,"CC[C@H](NC(=O)N(C)Cc1ccc2ccccc2n1)C(=O)N[C@@H](CCCc1ccccc1)[C@@H]1O[C@@H]1[C@H](CCCc1ccccc1)NC(=O)[C@H](CC)NC(=O)N(C)Cc1ccc2ccccc2n1 [Example 38, 1,10-Diphenyl-4(S),7(S)-di[N-[2(S)-N-[[N(methyl)-N(quinolin-2-ylmethyl)amino]carbonyl]aminobutanoyl]amino]-5,6-cis-epoxydecane]",23.8 nM
6,"O=C(N[C@@H](Cn1cccn1)C(=O)N[C@@H](Cc1ccccc1)[C@@H]1O[C@@H]1[C@H](Cc1ccccc1)NC(=O)[C@H](Cn1cccn1)NC(=O)OCc1ccccc1)OCc1ccccc1 [Example 7, 1,6-Diphenyl-2(S),5(S)-di[N-[2(S)-N(benzyloxycarbonyl)amino-3-pyrazol-1-ylpropanoyl]amino]3,4-cis-epoxyhexane]",8260 nM
7,"N#CC[C@H](NC(=O)OCc1ccccc1)C(=O)N[C@@H](Cc1ccccc1)[C@@H]1O[C@@H]1[C@H](Cc1ccccc1)NC(=O)[C@H](CC#N)NC(=O)OCc1ccccc1 [Example 6, 1,6-Diphenyl-2(S),5(S)-di[N-[2(S)-N(benzyloxycarbonyl)amino-3-cyanopropanoyl]amino]-3,4-cis-epoxyhexane]",880 nM
8,"O=C(N[C@@H](Cc1c[nH]cn1)C(=O)N[C@@H](Cc1ccccc1)[C@@H]1O[C@@H]1[C@H](Cc1ccccc1)NC(=O)[C@H](Cc1c[nH]cn1)NC(=O)OCc1ccccc1)OCc1ccccc1 [Example 9, 1,6-Diphenyl-2(S),5(S)-di[N-[2(S)-N(benzyloxycarbonyl)amino-3-imidazol-4-yl-propanoyl]amino]-3,4-cis-epoxyhexane]",84.2 nM
9,"Cc1cccc(COC(=O)N[C@H](C(=O)N[C@@H](Cc2ccccc2)[C@@H]2O[C@@H]2[C@H](Cc2ccccc2)NC(=O)[C@@H](NC(=O)OCc2cccc(C)n2)C(C)C)C(C)C)n1 [Example 29, 1,6-Diphenyl-2(S),5(S)-di[N-[2(S)-N(6-methylpyrid-2-ylmethoxycarbonyl)amino-3-methylbutanoyl]amino]-3,4-cis-epoxyhexane]",39.2 nM
10,"CCCC[C@H](NC(=O)N(C)Cc1ccc2ccccc2n1)C(=O)N[C@@H](Cc1ccccc1)[C@@H]1O[C@@H]1[C@H](Cc1ccccc1)NC(=O)[C@H](CCCC)NC(=O)N(C)Cc1ccc2ccccc2n1 [Example 22, 1,6-Diphenyl-2(S),5(S)-di[N-[2(S)-N[[N(methyl)-N(quinolin-2-ylmethyl)amino]carbonyl]aminohexanoyl]amino]-3,4-cis-epoxyhexane]",437 nM
11,"CC[C@H](NC(=O)OCc1ccccc1)C(=O)N[C@@H](Cc1ccccc1)[C@@H]1O[C@@H]1[C@H](Cc1ccccc1)NC(=O)[C@H](CC)NC(=O)OCc1ccccc1 [Example 2, 1,6-Diphenyl-2(S),5(S)-di[N-[2(S)-N(benzyloxycarbonyl)aminobutanoyl]amino]-3,4-cis-epoxyhexane]",14.4 nM
12,"N#CC[C@H](NC(=O)c1ccc2ccccc2n1)C(=O)N[C@@H](Cc1ccccc1)[C@@H]1O[C@@H]1[C@H](Cc1ccccc1)NC(=O)[C@H](CC#N)NC(=O)c1ccc2ccccc2n1 [Example 3, 1,6-Diphenyl-2(S),5(S)-di[N-[2(S)-N(quinolin-2-ylcarbonyl)amino-3-cyanopropanoyl]amino]-3,4-cis-epoxyhexane]",5350 nM
13,"CC[C@H](C)[C@H](NC(=O)OCc1ccc2ccccc2n1)C(=O)N[C@@H](Cc1ccccc1)[C@@H]1O[C@@H]1[C@H](Cc1ccccc1)NC(=O)[C@@H](NC(=O)OCc1ccc2ccccc2n1)[C@@H](C)CC [Example 15, 1,6-Diphenyl-2(S),5(S)-di[N-[2(S)-N[(quinolin-2-ylmethoxy)carbonyl]amino-3(S)-methylpentanoyl]amino]-3,4-cis-epoxyhexane]",27.3 nM

# Same assay, conditions: read-out: Fluorescence Assay average IC50 (marked *) (converted)
row,Structure (SMILES),IC50
1,"CC[C@H](C)[C@H](NC(=O)N(C)Cc1ccc2ccccc2n1)C(=O)N[C@@H](Cc1ccccc1)[C@@H]1O[C@@H]1[C@H](Cc1ccccc1)NC(=O)[C@@H](NC(=O)N(C)Cc1ccc2ccccc2n1)[C@@H](C)CC [Example 19, 1,6-Diphenyl-2(S),5(S)-di[N-[2(S)-N[[N(methyl)-N(quinolin-2-ylmethyl)amino]carbonyl]amino-3(S)methylpentanoyl]amino]-3,4-cis-epoxyhexane]",166 nM
2,"CC(C)[C@H](NC(=O)OCc1ccc2ccccc2n1)C(=O)N[C@@H](Cc1ccccc1)[C@@H]1O[C@@H]1[C@H](Cc1ccccc1)NC(=O)[C@@H](NC(=O)OCc1ccc2ccccc2n1)C(C)C [Example 4, 1,6-Diphenyl-2(S),5(S)-di[N-[2(S)-N[(quinolin-2-ylmethoxy)carbonyl]amino-3-methylbutanoyl]amino]-3,4-cis-epoxyhexane]",59.9 nM
3,"CC[C@H](NC(=O)N(C)Cc1ccc2ccccc2n1)C(=O)N[C@@H](Cc1ccccc1)[C@@H]1O[C@@H]1[C@H](Cc1ccccc1)NC(=O)[C@H](CC)NC(=O)N(C)Cc1ccc2ccccc2n1 [Example 18, 1,6-Diphenyl-2(S),5(S)-di[N-[2(S)-N-[[N(methyl)-N(quinolin-2-ylmethyl)amino]carbonyl]aminobutanoyl]amino]-3,4-cis-epoxyhexane]",8.36 nM
4,CC[C@H](NC(=O)N(C)Cc1ccc2ccccc2n1)C(=O)N[C@@H](Cc1ccc2ccccc2c1)[C@@H]1O[C@@H]1[C@H](Cc1ccc2ccccc2c1)NC(=O)[C@H](CC)NC(=O)N(C)Cc1ccc2ccccc2n1 [Example 32],181 nM
5,"CC(C)[C@H](NC(=O)OCc1ccccc1)C(=O)N[C@@H](Cc1ccccc1)[C@@H]1O[C@@H]1[C@H](Cc1ccccc1)NC(=O)[C@@H](NC(=O)OCc1ccccc1)C(C)C [Example 1, 1,6-Diphenyl-2(S),5(S)-di[N-[2(S)-N(benzyloxycarbonyl)amino-3-methyl-butanoyl]amino]-3,4-cis-epoxyhexane]",212 nM
